Reference: PubChem BioAssay (NCI)
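In this assay, cells in 96-well plates receive the compound at five concentrations for 48 hours. Endpoints are linearly interpolated between the surrounding concentrations. TGI denotes the concentration required for complete inhibition of growth.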

Legend:
Assay in all cases: growth of human tumour cells (NCI), 48 h
HOP-62 NSCLC = test system: HOP-62 NSCLC
OVCAR-8 ovarian = test system: OVCAR-8 ovarian
UACC-257 melanoma = test system: UACC-257 melanoma
SK-OV-3 ovarian = test system: SK-OV-3 ovarian
HCT-15 colon = test system: HCT-15 colon
DU-145 prostate = test system: DU-145 prostate
NCI-H522 lung = test system: NCI-H522 lung
CCRF-CEM leukemia = test system: CCRF-CEM leukemia
COLO 205 colon = test system: COLO 205 colon
LOX IMVI melanoma = test system: LOX IMVI melanoma
OVCAR-3 ovarian = test system: OVCAR-3 ovarian
NCI-H23 lung = test system: NCI-H23 lung
HS 578T breast = test system: HS 578T breast
SF-268 CNS = test system: SF-268 CNS
MDA-N = test system: MDA-N
OVCAR-5 ovarian = test system: OVCAR-5 ovarian
RXF 393 renal = test system: RXF 393 renal
SK-MEL-2 melanoma = test system: SK-MEL-2 melanoma
M14 melanoma = test system: M14 melanoma
NCI-H460 lung = test system: NCI-H460 lung
SK-MEL-28 melanoma = test system: SK-MEL-28 melanoma
MCF7 breast = test system: MCF7 breast
SF-539 CNS = test system: SF-539 CNS
ACHN renal = test system: ACHN renal
HCT-116 colon = test system: HCT-116 colon
PC-3 prostate = test system: PC-3 prostate
BT-549 breast = test system: BT-549 breast
SNB-19 CNS = test system: SNB-19 CNS
SNB-75 CNS = test system: SNB-75 CNS
HCC-2998 colon = test system: HCC-2998 colon
786-0 renal = test system: 786-0 renal
MOLT-4 leukemia = test system: MOLT-4 leukemia
EKVX NSCLC = test system: EKVX NSCLC
HOP-92 NSCLC = test system: HOP-92 NSCLC
IGROV1 ovarian = test system: IGROV1 ovarian
UO-31 renal = test system: UO-31 renal
SN12C renal = test system: SN12C renal
HT29 colon = test system: HT29 colon
KM12 colon = test system: KM12 colon
MDA-MB-435 = test system: MDA-MB-435
CAKI-1 renal = test system: CAKI-1 renal
SW-620 colon = test system: SW-620 colon
OVCAR-4 ovarian = test system: OVCAR-4 ovarian
HL-60(TB) leukemia = test system: HL-60(TB) leukemia
U251 CNS = test system: U251 CNS
SK-MEL-5 melanoma = test system: SK-MEL-5 melanoma
NCI/ADR-RES ovarian = test system: NCI/ADR-RES ovarian
UACC-62 melanoma = test system: UACC-62 melanoma
A549 NSCLC = test system: A549 NSCLC
SF-295 CNS = test system: SF-295 CNS
TK-10 renal = test system: TK-10 renal
MDA-MB-231 breast = test system: MDA-MB-231 breast
RPMI-8226 leukemia = test system: RPMI-8226 leukemia
NCI-H226 lung = test system: NCI-H226 lung
SR leukemia = test system: SR leukemia
MALME-3M melanoma = test system: MALME-3M melanoma
K-562 leukemia = test system: K-562 leukemia
A498 renal = test system: A498 renal

Cc1ccc(NC(=O)/C(CC2N=c3c(ccc4c(O)c5ccccc5c(O)c34)=NC2O)=N/NC(C)(C)C)cc1 (stereo not given)
TGI (HOP-62 NSCLC): 43.9 µM
TGI (OVCAR-8 ovarian): 21.9 µM
TGI (UACC-257 melanoma): > 100 µM
TGI (SK-OV-3 ovarian): 33.6 µM
TGI (HCT-15 colon): 44.5 µM
TGI (DU-145 prostate): 39.5 µM
TGI (NCI-H522 lung): 97.2 µM
TGI (CCRF-CEM leukemia): 7.26 µM
TGI (COLO 205 colon): > 100 µM
TGI (LOX IMVI melanoma): 25.3 µM
TGI (OVCAR-3 ovarian): 51.7 µM
TGI (NCI-H23 lung): 83.9 µM
TGI (HS 578T breast): 54.8 µM
TGI (SF-268 CNS): 59 µM
TGI (MDA-N): > 100 µM
TGI (OVCAR-5 ovarian): > 100 µM
TGI (RXF 393 renal): 44.2 µM
TGI (SK-MEL-2 melanoma): 81.9 µM
TGI (M14 melanoma): 73.6 µM
TGI (NCI-H460 lung): 26.4 µM
TGI (SK-MEL-28 melanoma): 39.3 µM
TGI (MCF7 breast): > 100 µM
TGI (SF-539 CNS): 25.9 µM
TGI (ACHN renal): 38.6 µM
TGI (HCT-116 colon): 29.6 µM
TGI (PC-3 prostate): 78.1 µM
TGI (BT-549 breast): > 100 µM
TGI (SNB-19 CNS): > 100 µM
TGI (SNB-75 CNS): 91.1 µM
TGI (HCC-2998 colon): 78.5 µM
TGI (786-0 renal): 17.5 µM
TGI (MOLT-4 leukemia): 22.6 µM
TGI (EKVX NSCLC): > 100 µM
TGI (HOP-92 NSCLC): 56.5 µM
TGI (IGROV1 ovarian): 83.5 µM
TGI (UO-31 renal): 17.5 µM
TGI (SN12C renal): 44.8 µM
TGI (HT29 colon): 43 µM
TGI (KM12 colon): > 100 µM
TGI (MDA-MB-435): > 100 µM
TGI (CAKI-1 renal): 25.6 µM
TGI (SW-620 colon): 70.2 µM
TGI (OVCAR-4 ovarian): 45.1 µM
TGI (HL-60(TB) leukemia): 28.1 µM
TGI (U251 CNS): 63.4 µM
TGI (SK-MEL-5 melanoma): 24.2 µM
TGI (NCI/ADR-RES ovarian): 20.2 µM
TGI (UACC-62 melanoma): 45.8 µM
TGI (A549 NSCLC): > 100 µM
TGI (SF-295 CNS): > 100 µM
TGI (TK-10 renal): 39.6 µM
TGI (MDA-MB-231 breast): 18.8 µM

O=C1c2ccccc2-c2nc(-c3ccncc3)cc3c2c1nc1ccccc13
TGI (HOP-62 NSCLC): 25.3 µM
TGI (OVCAR-8 ovarian): > 100 µM
TGI (UACC-257 melanoma): 47.3 µM
TGI (SK-OV-3 ovarian): > 100 µM
TGI (HCT-15 colon): > 100 µM
TGI (DU-145 prostate): 32.3 µM
TGI (NCI-H522 lung): 30.7 µM
TGI (CCRF-CEM leukemia): > 100 µM
TGI (COLO 205 colon): 62.3 µM
TGI (LOX IMVI melanoma): > 100 µM
TGI (OVCAR-3 ovarian): 12.8 µM
TGI (NCI-H23 lung): 41.3 µM
TGI (MDA-N): 41.9 µM
TGI (RPMI-8226 leukemia): > 100 µM
TGI (OVCAR-5 ovarian): > 100 µM
TGI (NCI-H226 lung): > 100 µM
TGI (SK-MEL-2 melanoma): 26.3 µM
TGI (M14 melanoma): 17 µM
TGI (NCI-H460 lung): 90.9 µM
TGI (SK-MEL-28 melanoma): > 100 µM
TGI (MCF7 breast): > 100 µM
TGI (SF-539 CNS): > 100 µM
TGI (SR leukemia): 44.8 µM
TGI (ACHN renal): > 100 µM
TGI (HCT-116 colon): > 100 µM
TGI (PC-3 prostate): > 100 µM
TGI (BT-549 breast): > 100 µM
TGI (SNB-19 CNS): > 100 µM
TGI (SNB-75 CNS): > 100 µM
TGI (HCC-2998 colon): 42.9 µM
TGI (786-0 renal): > 100 µM
TGI (MOLT-4 leukemia): 44.4 µM
TGI (EKVX NSCLC): > 100 µM
TGI (HOP-92 NSCLC): > 100 µM
TGI (IGROV1 ovarian): 52.8 µM
TGI (UO-31 renal): > 100 µM
TGI (SN12C renal): > 100 µM
TGI (HT29 colon): > 100 µM
TGI (KM12 colon): 47.7 µM
TGI (MDA-MB-435): 29.5 µM
TGI (CAKI-1 renal): > 100 µM
TGI (SW-620 colon): > 100 µM
TGI (MALME-3M melanoma): 22.4 µM
TGI (OVCAR-4 ovarian): > 100 µM
TGI (HL-60(TB) leukemia): 34.5 µM
TGI (U251 CNS): 33.2 µM
TGI (K-562 leukemia): > 100 µM
TGI (NCI/ADR-RES ovarian): > 100 µM
TGI (UACC-62 melanoma): 26.2 µM
TGI (A549 NSCLC): 40.2 µM
TGI (SF-295 CNS): 29.5 µM
TGI (TK-10 renal): > 100 µM
TGI (MDA-MB-231 breast): > 100 µM

COc1ccc(-c2csc(-n3c(-c4ccccc4)nc4c(Br)cc(Br)cc4c3=O)n2)cc1
TGI (HOP-62 NSCLC): > 100 µM
TGI (OVCAR-8 ovarian): > 100 µM
TGI (UACC-257 melanoma): > 100 µM
TGI (SK-OV-3 ovarian): > 100 µM
TGI (HCT-15 colon): > 100 µM
TGI (DU-145 prostate): > 100 µM
TGI (NCI-H522 lung): > 100 µM
TGI (CCRF-CEM leukemia): 43.6 µM
TGI (COLO 205 colon): > 100 µM
TGI (A498 renal): 65.9 µM
TGI (LOX IMVI melanoma): > 100 µM
TGI (OVCAR-3 ovarian): > 100 µM
TGI (NCI-H23 lung): 69.4 µM
TGI (HS 578T breast): > 100 µM
TGI (SF-268 CNS): 67.1 µM
TGI (MDA-N): 67.7 µM
TGI (RPMI-8226 leukemia): 31 µM
TGI (OVCAR-5 ovarian): > 100 µM
TGI (NCI-H226 lung): 90.7 µM
TGI (RXF 393 renal): 76.4 µM
TGI (SK-MEL-2 melanoma): > 100 µM
TGI (M14 melanoma): 96.4 µM
TGI (NCI-H460 lung): > 100 µM
TGI (SK-MEL-28 melanoma): 57.8 µM
TGI (MCF7 breast): > 100 µM
TGI (ACHN renal): > 100 µM
TGI (HCT-116 colon): 77.1 µM
TGI (PC-3 prostate): > 100 µM
TGI (BT-549 breast): 88.8 µM
TGI (SNB-19 CNS): > 100 µM
TGI (SNB-75 CNS): > 100 µM
TGI (HCC-2998 colon): > 100 µM
TGI (786-0 renal): 54.4 µM
TGI (MOLT-4 leukemia): > 100 µM
TGI (EKVX NSCLC): 35.1 µM
TGI (HOP-92 NSCLC): 46.7 µM
TGI (IGROV1 ovarian): > 100 µM
TGI (UO-31 renal): 68.2 µM
TGI (HT29 colon): > 100 µM
TGI (KM12 colon): > 100 µM
TGI (MDA-MB-435): 75.4 µM
TGI (CAKI-1 renal): > 100 µM
TGI (SW-620 colon): > 100 µM
TGI (MALME-3M melanoma): 59.2 µM
TGI (OVCAR-4 ovarian): > 100 µM
TGI (HL-60(TB) leukemia): 49 µM
TGI (U251 CNS): > 100 µM
TGI (SK-MEL-5 melanoma): 36.9 µM
TGI (K-562 leukemia): 58.7 µM
TGI (NCI/ADR-RES ovarian): 85.5 µM
TGI (UACC-62 melanoma): > 100 µM
TGI (A549 NSCLC): > 100 µM
TGI (SF-295 CNS): > 100 µM
TGI (TK-10 renal): > 100 µM
TGI (MDA-MB-231 breast): > 100 µM
